# In PubChem BioAssay (NCI):
#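 These data come from cells grown in 96-well plates and exposed to compound for 48 hours at five concentrations. At the TGI there is no net growth.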
# Experiments:
# Assay in all cases: NCI tumour cell line growth inhibition, 48 h
# OVCAR-3 ovarian = test system: OVCAR-3 ovarian
# NCI-H460 lung = test system: NCI-H460 lung
# SK-MEL-2 melanoma = test system: SK-MEL-2 melanoma
# M19-MEL melanoma = test system: M19-MEL melanoma
# DMS 273 small cell lung = test system: DMS 273 small cell lung
# SR leukemia = test system: SR leukemia
# LXFL 529 NSCLC = test system: LXFL 529 NSCLC
# MOLT-4 leukemia = test system: MOLT-4 leukemia
# HOP-92 NSCLC = test system: HOP-92 NSCLC
# OVCAR-5 ovarian = test system: OVCAR-5 ovarian
# SF-539 CNS = test system: SF-539 CNS
# KM20L2 colon = test system: KM20L2 colon
# A549 NSCLC = test system: A549 NSCLC
# ACHN renal = test system: ACHN renal
# NCI-H522 lung = test system: NCI-H522 lung
# OVCAR-8 ovarian = test system: OVCAR-8 ovarian
# SNB-19 CNS = test system: SNB-19 CNS
# HT29 colon = test system: HT29 colon
# CCRF-CEM leukemia = test system: CCRF-CEM leukemia
# TK-10 renal = test system: TK-10 renal
# RPMI-8226 leukemia = test system: RPMI-8226 leukemia
# M14 melanoma = test system: M14 melanoma
# HCT-116 colon = test system: HCT-116 colon
# KM12 colon = test system: KM12 colon
# HL-60(TB) leukemia = test system: HL-60(TB) leukemia
# SNB-78 CNS = test system: SNB-78 CNS
# COLO 205 colon = test system: COLO 205 colon
# 786-0 renal = test system: 786-0 renal
# NCI-H226 lung = test system: NCI-H226 lung
# RXF 393 renal = test system: RXF 393 renal
# XF 498 CNS = test system: XF 498 CNS
# RXF-631 renal = test system: RXF-631 renal
# OVCAR-4 ovarian = test system: OVCAR-4 ovarian
# A498 renal = test system: A498 renal
# SF-268 CNS = test system: SF-268 CNS
# DMS 114 small cell lung = test system: DMS 114 small cell lung
# K-562 leukemia = test system: K-562 leukemia
# SN12C renal = test system: SN12C renal
# U251 CNS = test system: U251 CNS
# SF-295 CNS = test system: SF-295 CNS
# SK-OV-3 ovarian = test system: SK-OV-3 ovarian
# UACC-257 melanoma = test system: UACC-257 melanoma
# LOX IMVI melanoma = test system: LOX IMVI melanoma
# DLD-1 colon = test system: DLD-1 colon
# SK-MEL-5 melanoma = test system: SK-MEL-5 melanoma
# CAKI-1 renal = test system: CAKI-1 renal
# UO-31 renal = test system: UO-31 renal
# SNB-75 CNS = test system: SNB-75 CNS
# SK-MEL-28 melanoma = test system: SK-MEL-28 melanoma
# NCI-H23 lung = test system: NCI-H23 lung
# HOP-62 NSCLC = test system: HOP-62 NSCLC
# HOP-18 NSCLC = test system: HOP-18 NSCLC
# EKVX NSCLC = test system: EKVX NSCLC
# UACC-62 melanoma = test system: UACC-62 melanoma
# HCC-2998 colon = test system: HCC-2998 colon
# HCT-15 colon = test system: HCT-15 colon
# MALME-3M melanoma = test system: MALME-3M melanoma
# IGROV1 ovarian = test system: IGROV1 ovarian
# MCF7 breast = test system: MCF7 breast
# P388 leukemia = test system: P388 leukemia
# NCI/ADR-RES ovarian = test system: NCI/ADR-RES ovarian
# SW-620 colon = test system: SW-620 colon
# SN12K1 renal = test system: SN12K1 renal
# P388/ADR leukemia = test system: P388/ADR leukemia
compound,measurement,setting,value
O=[N+]([O-])c1ccc(COc2cccc3cccnc23)cc1,TGI,OVCAR-3 ovarian,> 100 µM
same,TGI,NCI-H460 lung,17.2 µM
same,TGI,SK-MEL-2 melanoma,> 100 µM
same,TGI,M19-MEL melanoma,38.2 µM
same,TGI,DMS 273 small cell lung,20.8 µM
same,TGI,SR leukemia,13.6 µM
same,TGI,LXFL 529 NSCLC,> 100 µM
same,TGI,MOLT-4 leukemia,31.4 µM
same,TGI,HOP-92 NSCLC,> 100 µM
same,TGI,OVCAR-5 ovarian,> 100 µM
same,TGI,SF-539 CNS,92.7 µM
same,TGI,KM20L2 colon,> 100 µM
same,TGI,A549 NSCLC,> 100 µM
same,TGI,ACHN renal,76.8 µM
same,TGI,NCI-H522 lung,19.4 µM
same,TGI,OVCAR-8 ovarian,> 100 µM
same,TGI,SNB-19 CNS,> 100 µM
same,TGI,HT29 colon,> 100 µM
same,TGI,CCRF-CEM leukemia,23.7 µM
same,TGI,TK-10 renal,52.5 µM
same,TGI,RPMI-8226 leukemia,39.2 µM
same,TGI,M14 melanoma,29 µM
same,TGI,HCT-116 colon,> 100 µM
same,TGI,KM12 colon,96.5 µM
same,TGI,HL-60(TB) leukemia,22.3 µM
same,TGI,SNB-78 CNS,> 100 µM
same,TGI,COLO 205 colon,33.5 µM
same,TGI,786-0 renal,90.6 µM
same,TGI,NCI-H226 lung,95.4 µM
same,TGI,RXF 393 renal,> 100 µM
same,TGI,XF 498 CNS,67.5 µM
same,TGI,RXF-631 renal,33.3 µM
same,TGI,OVCAR-4 ovarian,36.7 µM
same,TGI,A498 renal,79.2 µM
same,TGI,SF-268 CNS,68.7 µM
same,TGI,DMS 114 small cell lung,6.92 µM
same,TGI,K-562 leukemia,35.9 µM
same,TGI,SN12C renal,> 100 µM
same,TGI,U251 CNS,> 100 µM
same,TGI,SF-295 CNS,> 100 µM
same,TGI,SK-OV-3 ovarian,> 100 µM
same,TGI,UACC-257 melanoma,54.8 µM
same,TGI,LOX IMVI melanoma,29.2 µM
same,TGI,DLD-1 colon,71.2 µM
same,TGI,SK-MEL-5 melanoma,58.4 µM
same,TGI,CAKI-1 renal,75 µM
same,TGI,UO-31 renal,68.1 µM
same,TGI,SNB-75 CNS,78.3 µM
same,TGI,SK-MEL-28 melanoma,85 µM
same,TGI,NCI-H23 lung,> 100 µM
same,TGI,HOP-62 NSCLC,> 100 µM
same,TGI,HOP-18 NSCLC,> 100 µM
same,TGI,EKVX NSCLC,70.3 µM
same,TGI,UACC-62 melanoma,45.2 µM
same,TGI,HCC-2998 colon,> 100 µM
same,TGI,HCT-15 colon,25.7 µM
same,TGI,MALME-3M melanoma,> 100 µM
same,TGI,IGROV1 ovarian,67.7 µM
O=C1CCCN1CCCN=c1cc2n(-c3ccc(Cl)cc3)c3ccccc3nc-2cc1Nc1ccc(Cl)cc1,TGI,OVCAR-3 ovarian,6.18 µM
same,TGI,NCI-H460 lung,22.1 µM
same,TGI,SK-MEL-2 melanoma,30.7 µM
same,TGI,M19-MEL melanoma,5.45 µM
same,TGI,DMS 273 small cell lung,43.6 µM
same,TGI,MOLT-4 leukemia,27 µM
same,TGI,HOP-92 NSCLC,40.6 µM
same,TGI,OVCAR-5 ovarian,37.3 µM
same,TGI,SF-539 CNS,28.2 µM
same,TGI,KM20L2 colon,11 µM
same,TGI,A549 NSCLC,35.3 µM
same,TGI,MCF7 breast,25.8 µM
same,TGI,NCI-H522 lung,16.6 µM
same,TGI,OVCAR-8 ovarian,53.2 µM
same,TGI,P388 leukemia,13 µM
same,TGI,SNB-19 CNS,98.8 µM
same,TGI,HT29 colon,13 µM
same,TGI,CCRF-CEM leukemia,50.3 µM
same,TGI,RPMI-8226 leukemia,28.1 µM
same,TGI,HCT-116 colon,25.3 µM
same,TGI,KM12 colon,28.7 µM
same,TGI,NCI/ADR-RES ovarian,42.1 µM
same,TGI,HL-60(TB) leukemia,15.8 µM
same,TGI,SNB-78 CNS,75.2 µM
same,TGI,COLO 205 colon,2.83 µM
same,TGI,NCI-H226 lung,32.3 µM
same,TGI,RXF 393 renal,11.3 µM
same,TGI,XF 498 CNS,35.3 µM
same,TGI,SW-620 colon,68.5 µM
same,TGI,OVCAR-4 ovarian,21.8 µM
same,TGI,A498 renal,43.2 µM
same,TGI,SF-268 CNS,> 100 µM
same,TGI,DMS 114 small cell lung,20.2 µM
same,TGI,SN12K1 renal,23.3 µM
same,TGI,P388/ADR leukemia,15.4 µM
same,TGI,K-562 leukemia,30 µM
same,TGI,SN12C renal,43.4 µM
same,TGI,U251 CNS,54.2 µM
same,TGI,SF-295 CNS,40.7 µM
same,TGI,SK-OV-3 ovarian,80.7 µM
same,TGI,UACC-257 melanoma,24.7 µM
same,TGI,LOX IMVI melanoma,28.2 µM
same,TGI,DLD-1 colon,28.3 µM
same,TGI,SK-MEL-5 melanoma,19 µM
same,TGI,CAKI-1 renal,> 100 µM
same,TGI,UO-31 renal,51.3 µM
same,TGI,SNB-75 CNS,97.5 µM
same,TGI,SK-MEL-28 melanoma,47.5 µM
same,TGI,NCI-H23 lung,25.1 µM
same,TGI,HOP-62 NSCLC,29.5 µM
same,TGI,HOP-18 NSCLC,> 92.4 µM
same,TGI,EKVX NSCLC,28.1 µM
same,TGI,UACC-62 melanoma,26.2 µM
same,TGI,HCC-2998 colon,18.1 µM
same,TGI,HCT-15 colon,20 µM
same,TGI,MALME-3M melanoma,38.3 µM
same,TGI,IGROV1 ovarian,24.9 µM
